Reference: article PMC9645260, “Small-molecule inhibitors of P-Rex guanine-nucleotide exchange factors” (Small GTPases, 2022)

Assays:
[1] = system: PAE cells expressing eGFP-P-Rex1; experiment: PAE cell morphology after PDGF stimulation; format: cell-based, pig; conditions: 1 µM for 15 min
Procedure: Pig aortic endothelial (PAE) cells, which stably overexpress PDGF receptor beta, were grown at 37°C in a humidified 5% CO2 atmosphere in Ham’s F-12 medium with L-glutamine (PAA) supplemented with 10% FBS, 100 units/ml penicillin and 100 µg/ml streptomycin (complete medium). Cells were passaged by tryptic digest 1:4 approximately every 2 days. PAE cells were transfected with eGFP-P-Rex1 by electroporation as described, resuspended in complete medium without antibiotics and plated onto sterile 22 mm glass coverslips in 6-well plates. After 12 h, cells were washed twice in Ham’s F-12 and serum starved in Ham’s F-12 containing 1% fatty acid-free BSA) for 8 h. PREX-in1 was added to the medium to a concentration of 1 µM, or cells were mock-treated with vehicle control (0.05% DMSO), for 15 min at 37°C. Cells were stimulated with 10 ng/ml PDGF for 10 min, or were mock-stimulated, and then fixed in 4% paraformaldehyde, 50 mM Pipes pH 6.8, 1 mM EGTA, 1 mM MgCl2 for 15 min at RT. Cells were washed in PBS, permeabilized for 10 min in PBS containing 0.2% Triton X-100, washed twice in PBS and once in PBS, 0.1% BSA. The F-actin cytoskeleton was stained by incubating samples with TRITC-Phalloidin (Sigma P1951) in PBS, 0.1% BSA for 45 min at RT in the dark. Coverslips were washed twice in PBS, rinsed once in water, and mounted onto slides using Aqua Polymount (Polysciences, Inc.). Samples were imaged using an AxioImager D2 fluorescence microscope (Zeiss, ×200 magnification), taking 15–20 representative images for each duplicate coverslip. Images were analysed blinded to experimental design using ImageJ, for both manual and automated analysis. Using manual analysis, each cell was assigned to a morphology category (basal, with lamellipodia and membrane ruffles, spread with ruffles). With automated analysis, the surface area and circularity of all cells were quantified using the ‘Set Measurements’ analysis tools of ImageJ after assigning a mask to each cell. To determine the proportion of spread cells, cells with a surface area more than 50% larger than the mean under basal conditions (1246 μm^2) were considered spread. eGFP-P-Rex1 expressing cells were compared to non-green fluorescent cells on the same coverslip.

[2] = target: T1, P-Rex2 DH domain (Homo sapiens, UniProt Q70Z35); experiment: Liposome-based GEF activity assay, isolated P-Rex2 DH domain; format: biochemical; conditions: 200 nM DH domain, read-out: inhibition of constitutive Rac-GEF activity of isolated P-Rex2 DH domain
T1 construct: constitutive Rac-GEF activity of the isolated P-Rex2 DH domain (by 92%); made in house; host or cells: Sf9 cells (baculovirus)
T1 sequence (Q70Z35 23-214 limits assumed): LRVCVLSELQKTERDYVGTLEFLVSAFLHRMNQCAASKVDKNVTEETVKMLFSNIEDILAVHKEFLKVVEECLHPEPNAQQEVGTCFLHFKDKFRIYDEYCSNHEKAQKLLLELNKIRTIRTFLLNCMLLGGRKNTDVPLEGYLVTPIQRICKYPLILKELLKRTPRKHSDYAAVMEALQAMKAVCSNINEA
Procedure: Full-length N-terminally EE-tagged P-Rex1, P-Rex2, the P-Rex1 DH and DHPH domains and the P-Rex2 DH domain were produced in Sf9 cells using baculoviral transduction and were purified using anti-EE beads, as previously described. Briefly, frozen pellets from 500 ml of Sf9 culture infected with P-Rex expressing high-titre baculovirus were resuspended in ice-cold lysis Sf9-cell lysis buffer 2 (1x PBS, 1% Triton X-100, 5 mM EGTA, 1 mM EDTA, 25 mM NaF, 20 mM β-glycerophosphate, 1 mM DTT, 100 µM PMSF, 10 μg/ml each of leupeptin, pepstatin A, aprotinin and antipain) for 5 min and then ultracentrifuged at 118,000 × g for 1 h at 4°C. Supernatants were incubated with pre-washed anti-EE beads for 90 min on ice with end-over-end rotation. […] Protein concentration and purity were determined by coomassie staining of SDS-PAGE gels. […]
Liposome-based GEF activity assays were carried out essentially as described, except that GEFs were incubated with inhibitor compounds prior to the assay. […] Small GTPases were isolated using anti-EE antibody-coupled Sepharose beads or glutathione Sepharose beads, as appropriate, by incubation on ice for 90 min with end-over-end rotation, four washes in ice-cold wash buffer and resuspension of beads in Ultima Gold scintillation fluid (Perkin Elmer). ^35S-GTPγS incorporation was assessed by scintillation counting (Packard 1600TR, Liquid Scintillation Analyser).

COc1ccc(-c2[nH]nc3c2C(c2ccc(-c4ccc(Cl)cc4)o2)C(C#N)=C(N)O3)cc1 (centres unmarked) [PREX-in1, 6-amino-4-[5-(4-chlorophenyl)-2-furyl]-3-(4-methoxyphenyl)-2,4-dihydropyrano[2,3-c]pyrazole-5-carbonitrile]
morphology of mock-transfected cells [1]: did not affect the morphology | P-Rex1 dependent spreading of PDGF-stimulated cells ([1]; 10 ng/ml PDGF): did inhibit | cell circularity ([1]; automated analysis): lack of effect | proportion of cells with lamellipodia or membrane ruffles ([1]; manual analysis): did not affect the proportion of cells with lamellipodia or membrane ruffles | inhibition at 10 µM [2]: 92%
